Legend:
Assay in all cases: relative viability (nuclei count vs DMSO), 5 days (fraction); higher = more cells survive
ChaGo-K-1 = system: ChaGo-K-1
Summary of the method: (§1)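 Five library-drug doses in √10 steps were combined with a fixed anchor-drug dose, or a single drug was given alone, by pin tool to lung cancer cell lines in 1536-well plates the day after seeding. Nuclei were stained and counted after 5 days. Relative viability is the nuclei count in treated wells over that in vehicle wells, taken as the median of duplicate plates.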

EMC-BAC-2 = system: EMC-BAC-2
Summary of the method: as §1

EPLC-272H = system: EPLC-272H
Summary of the method: as §1

HCC-366 = system: HCC-366
Summary of the method: as §1

HCC-44 = system: HCC-44
Summary of the method: as §1

HCC-78 = system: HCC-78
Summary of the method: as §1

HCC-827 = system: HCC-827
Summary of the method: as §1

LCLC-103H = system: LCLC-103H
Summary of the method: as §1

LK-2 = system: LK-2
Summary of the method: as §1

LOU-NH91 = system: LOU-NH91
Summary of the method: as §1

LU99A = system: LU99A
Summary of the method: as §1

LXF-289 = system: LXF-289
Summary of the method: as §1

NCI-H1563 = system: NCI-H1563
Summary of the method: as §1

NCI-H1666 = system: NCI-H1666
Summary of the method: as §1

NCI-H1975 = system: NCI-H1975
Summary of the method: as §1

NCI-H2085 = system: NCI-H2085
Summary of the method: as §1

NCI-H2126 = system: NCI-H2126
Summary of the method: as §1

NCI-H23 = system: NCI-H23
Summary of the method: as §1

NCI-H2405 = system: NCI-H2405
Summary of the method: as §1

NCI-H3122 = system: NCI-H3122
Summary of the method: as §1

RERF-LC-KJ = system: RERF-LC-KJ
Summary of the method: as §1

SK-LU-1 = system: SK-LU-1
Summary of the method: as §1

SW 1573 = system: SW 1573
Summary of the method: as §1

SW 900 = system: SW 900
Summary of the method: as §1

In the case of `COc1cc(N2CCC(C(N)=O)CC2)ccc1Nc1nc(N)c(Cl)c(Nc2ccccc2S(=O)(=O)C(C)C)n1` [HG-5-88-01] + COc1cccc2cc(-c3nc([C@H]4CC[C@H](C(=O)O)CC4)n4ncnc(N)c34)[nH]c12 [OSI-027] (partner 0.5 µM), the relative viability (ChaGo-K-1; first compound 0.04 µM) is reported as 0.627, the relative viability (ChaGo-K-1; first compound 0.1265 µM) is reported as 0.649 and the relative viability (ChaGo-K-1; first compound 0.4 µM) is reported as 0.645. For the same compound, the relative viability (ChaGo-K-1; first compound 1.265 µM) was 0.605, the relative viability (ChaGo-K-1; first compound 4 µM) was 0.47 and the relative viability (EMC-BAC-2; first compound 0.04 µM) was 0.361. For the same compound, the relative viability (EMC-BAC-2; first compound 0.1265 µM) was 0.371, the relative viability (EMC-BAC-2; first compound 0.4 µM) was 0.326 and the relative viability (EMC-BAC-2; first compound 1.265 µM) was 0.307. The relative viability (EMC-BAC-2; first compound 4 µM) was 0.251, the relative viability (EPLC-272H; first compound 0.04 µM) was 0.31 and the relative viability (EPLC-272H; first compound 0.1265 µM) was 0.278. The relative viability (EPLC-272H; first compound 0.4 µM) was 0.294, the relative viability (EPLC-272H; first compound 1.265 µM) was 0.242 and the relative viability (EPLC-272H; first compound 4 µM) was 0.0931. For the same compound, the relative viability (HCC-366; first compound 0.04 µM) was 1.02, the relative viability (HCC-366; first compound 0.1265 µM) was 0.941 and the relative viability (HCC-366; first compound 0.4 µM) was 1.02. The relative viability (HCC-366; first compound 1.265 µM) was 0.577, the relative viability (HCC-366; first compound 4 µM) was 0.6 and the relative viability (HCC-44; first compound 0.04 µM) was 0.491. For the same compound, the relative viability (HCC-44; first compound 0.1265 µM) was 0.507, the relative viability (HCC-44; first compound 0.4 µM) was 0.353 and the relative viability (HCC-44; first compound 1.265 µM) was 0.392. For the same compound, the relative viability (HCC-44; first compound 4 µM) was 0.121, the relative viability (HCC-78; first compound 0.04 µM) was 0.359 and the relative viability (HCC-78; first compound 0.1265 µM) was 0.293. The relative viability (HCC-78; first compound 0.4 µM) was 0.349, the relative viability (HCC-78; first compound 1.265 µM) was 0.27 and the relative viability (HCC-78; first compound 4 µM) was 0.301. It also gave a relative viability (HCC-827; first compound 0.04 µM) of 0.819, a relative viability (HCC-827; first compound 0.1265 µM) of 0.89 and a relative viability (HCC-827; first compound 0.4 µM) of 0.8. For the same compound, the relative viability (HCC-827; first compound 1.265 µM) was 0.564, the relative viability (HCC-827; first compound 4 µM) was 0.406 and the relative viability (LCLC-103H; first compound 0.04 µM) was 0.416. The relative viability (LCLC-103H; first compound 0.1265 µM) was 0.435, the relative viability (LCLC-103H; first compound 0.4 µM) was 0.381 and the relative viability (LCLC-103H; first compound 1.265 µM) was 0.362. The relative viability (LCLC-103H; first compound 4 µM) was 0.405, the relative viability (LK-2; first compound 0.04 µM) was 0.173 and the relative viability (LK-2; first compound 0.1265 µM) was 0.189. It also gave a relative viability (LK-2; first compound 0.4 µM) of 0.15, a relative viability (LK-2; first compound 1.265 µM) of 0.173 and a relative viability (LK-2; first compound 4 µM) of 0.175. For the same compound, the relative viability (LOU-NH91; first compound 0.04 µM) was 0.602, the relative viability (LOU-NH91; first compound 0.1265 µM) was 0.635 and the relative viability (LOU-NH91; first compound 0.4 µM) was 0.615. The relative viability (LOU-NH91; first compound 1.265 µM) was 0.442, the relative viability (LOU-NH91; first compound 4 µM) was 0.451 and the relative viability (LU99A; first compound 0.04 µM) was 0.245. The relative viability (LU99A; first compound 0.1265 µM) was 0.316, the relative viability (LU99A; first compound 0.4 µM) was 0.286 and the relative viability (LU99A; first compound 1.265 µM) was 0.279. For the same compound, the relative viability (LU99A; first compound 4 µM) was 0.263, the relative viability (LXF-289; first compound 0.04 µM) was 0.755 and the relative viability (LXF-289; first compound 0.1265 µM) was 0.815. It also gave a relative viability (LXF-289; first compound 0.4 µM) of 0.77, a relative viability (LXF-289; first compound 1.265 µM) of 0.635 and a relative viability (LXF-289; first compound 4 µM) of 0.337. For the same compound, the relative viability (NCI-H1563; first compound 0.04 µM) was 0.715, the relative viability (NCI-H1563; first compound 0.1265 µM) was 0.754 and the relative viability (NCI-H1563; first compound 0.4 µM) was 0.709. The relative viability (NCI-H1563; first compound 1.265 µM) was 0.638, the relative viability (NCI-H1563; first compound 4 µM) was 0.573 and the relative viability (NCI-H1666; first compound 0.04 µM) was 0.866. For the same compound, the relative viability (NCI-H1666; first compound 0.1265 µM) was 0.859, the relative viability (NCI-H1666; first compound 0.4 µM) was 0.692 and the relative viability (NCI-H1666; first compound 1.265 µM) was 0.605. The relative viability (NCI-H1666; first compound 4 µM) was 0.532, the relative viability (NCI-H1975; first compound 0.04 µM) was 0.711 and the relative viability (NCI-H1975; first compound 0.1265 µM) was 0.803. It also gave a relative viability (NCI-H1975; first compound 0.4 µM) of 0.631, a relative viability (NCI-H1975; first compound 1.265 µM) of 0.461 and a relative viability (NCI-H1975; first compound 4 µM) of 0.19. It also gave a relative viability (NCI-H2085; first compound 0.04 µM) of 0.713, a relative viability (NCI-H2085; first compound 0.1265 µM) of 0.872 and a relative viability (NCI-H2085; first compound 0.4 µM) of 0.615. It also gave a relative viability (NCI-H2085; first compound 1.265 µM) of 0.384, a relative viability (NCI-H2085; first compound 4 µM) of 0.321 and a relative viability (NCI-H2126; first compound 0.1265 µM) of 0.688. For the same compound, the relative viability (NCI-H2126; first compound 0.4 µM) was 0.71, the relative viability (NCI-H2126; first compound 1.265 µM) was 0.518 and the relative viability (NCI-H2126; first compound 4 µM) was 0.432. The relative viability (NCI-H23; first compound 0.04 µM) was 0.511, the relative viability (NCI-H23; first compound 0.1265 µM) was 0.605 and the relative viability (NCI-H23; first compound 0.4 µM) was 0.615. For the same compound, the relative viability (NCI-H23; first compound 1.265 µM) was 0.311, the relative viability (NCI-H23; first compound 4 µM) was 0.238 and the relative viability (NCI-H2405; first compound 0.04 µM) was 0.579. The relative viability (NCI-H2405; first compound 0.1265 µM) was 0.559, the relative viability (NCI-H2405; first compound 0.4 µM) was 0.539 and the relative viability (NCI-H2405; first compound 1.265 µM) was 0.343. For the same compound, the relative viability (NCI-H2405; first compound 4 µM) was 0.382, the relative viability (NCI-H3122; first compound 0.04 µM) was 0.226 and the relative viability (NCI-H3122; first compound 0.1265 µM) was 0.213. For the same compound, the relative viability (NCI-H3122; first compound 0.4 µM) was 0.114, the relative viability (NCI-H3122; first compound 1.265 µM) was 0.149 and the relative viability (NCI-H3122; first compound 4 µM) was 0.129. The relative viability (RERF-LC-KJ; first compound 0.04 µM) was 0.637, the relative viability (RERF-LC-KJ; first compound 0.1265 µM) was 0.54 and the relative viability (RERF-LC-KJ; first compound 0.4 µM) was 0.506. It also gave a relative viability (RERF-LC-KJ; first compound 1.265 µM) of 0.345, a relative viability (RERF-LC-KJ; first compound 4 µM) of 0.308 and a relative viability (SK-LU-1; first compound 0.04 µM) of 0.292. The relative viability (SK-LU-1; first compound 0.1265 µM) was 0.34, the relative viability (SK-LU-1; first compound 0.4 µM) was 0.278 and the relative viability (SK-LU-1; first compound 1.265 µM) was 0.235. For the same compound, the relative viability (SK-LU-1; first compound 4 µM) was 0.174, the relative viability (SW 1573; first compound 0.04 µM) was 0.624 and the relative viability (SW 1573; first compound 0.1265 µM) was 0.609. For the same compound, the relative viability (SW 1573; first compound 0.4 µM) was 0.359, the relative viability (SW 1573; first compound 1.265 µM) was 0.306 and the relative viability (SW 1573; first compound 4 µM) was 0.375. For the same compound, the relative viability (SW 900; first compound 0.04 µM) was 0.505, the relative viability (SW 900; first compound 0.1265 µM) was 0.646 and the relative viability (SW 900; first compound 0.4 µM) was 0.6. It also gave a relative viability (SW 900; first compound 1.265 µM) of 0.57 and a relative viability (SW 900; first compound 4 µM) of 0.381.

Source: the supplement of paper PMC10307832
